# Assay results: patent US11833149B2, “Pulse dosing regimen and methods of treatment” (OSI Pharmaceuticals, LLC, priority 2016, dated 2023)
# “Also recorded” adds a separate entry of the source.
# How the values were obtained:
# EGFR-mutant lung cancers = test: Phase 1 study of pulse-continuous erlotinib: response (RECIST 1.1) and progression-free survival; assay type: in vivo, patients
# Protocol: (§1) The study was registered at clinicaltrials.gov (NCT01967095). […] All patients provided written informed consent.
# Prior cytotoxic chemotherapy was allowed. Patients were required to have measurable disease per RECIST (Response Evaluation Criteria in Solid Tumours), version 1.1). […] Patients with clinically stable brain metastases, either treated or untreated, were eligible.
# Response assessments: Response to therapy was assessed by interval imaging every 6 weeks with a CT scan with response evaluated per RECIST 1.1. After six cycles on treatment, patients could reduce the radiographic assessments to every 4 cycles (12 weeks).
# Statistical Analysis: Descriptive statistics were used to summarize the clinical characteristics of the patients. Progression-free survival was estimated using the Kaplan-Meier method, and defined as the time from start of study therapy until progression or death. […] Response rates were calculated using binomial proportions and exact 95% CIs. All statistical analyses were performed using R 3.2.2 (R Development Core Team) including the “survival” and “Hmisc” packages.
# brain metastases = test: Phase 1 study of pulse-continuous erlotinib: central nervous system activity; assay type: in vivo, patients
# Excerpt: as §1
# Central nervous system activity: A brain MRI was required at enrollment.
# [1] = Phase 1 study: pharmacokinetic analysis of plasma (LC-MS/MS); assay type: in vivo, patients
# Protocol: Pharmacokinetic analysis: Whole-blood samples for plasma were collected at prescheduled time points for pharmacokinetic (PK) analysis. Plasma levels of erlotinib were determined using a validated liquid chromatography-tandem mass spectrometry assay. […] MS detection was using an AB SCIEX API 4000 triple quadrupole mass spectrometer operating in positive ion electrospray ionization (ESI) mode. Standard PK parameters were calculated using a noncompartmental method (WiNNonlin, Pharsight).
# [2] = in vivo
# Protocol: (§2) Toxicity assessments: Patients were assessed five times during cycle 1 (28 days) and then every 21 days thereafter. Patient history, physical examination, complete blood count and serum chemistries were performed at each visit. Toxicity was graded according to the National Cancer Institute Common Terminology Criteria for Adverse Events (NCI CTCAE), version 4.
# [3] = cited from earlier work
# [4] = tested on: EGFR-mutant lung cancers with CNS involvement; settings: median dose erlotinib 1500 mg once weekly (Grommes et al.); cited from earlier work
# [5] = cited from earlier work; remark: listed apart in the source
# [6] = Phase 1 dose-escalation study of pulse-continuous erlotinib: DLT, MTD, adverse events
# Protocol: as §2
# [7] = erlotinib 1500 mg once weekly (Clarke et al.)
compound,measurement,setting,value
"C#Cc1cccc(Nc2ncnc3cc(OCCOC)c(OCCOC)cc23)c1 [erlotinib, N-(3-ethynylphenyl)-6,7-bis(2-methoxyethoxy)-4-quinazolinamine]",patients with complete response,EGFR-mutant lung cancers; 34 patients,one
same,patients with confirmed partial responses,EGFR-mutant lung cancers; 34 patients,Twenty-four
same,median progression-free survival,EGFR-mutant lung cancers; 95% CI 5.8-15.4 months,9.9 months
same,overall response rate,"EGFR-mutant lung cancers; intent to treat, 34 patients, 95% CI 60-84%",74%
same,change in the sum of target lesions,EGFR-mutant lung cancers; patients with radiographic assessment,All patients had a decrease
same,patients with evidence of tumor regression in the CNS,brain metastases; 6 patients with untreated brain metastases,6
same,radiographic evidence of new or progressing brain metastases,brain metastases; 16 patients with CNS imaging within three months of coming off study for progression,none
same,CNS progression on study treatment,brain metastases; all patients,none of the patients; also recorded: No patients
same,change of peak plasma concentration with increasing pulse doses,"[1]; 600 mg to 1,350 mg, Cycle 1",no significant increases
same,range of peak plasma concentration,"[1]; 4 hr post-administration, Week 2","2,600-9355 ng/mL"
same,median peak plasma concentration,"[1]; 4 hr post-administration, after the second day of weekly pulse dose at Week 2","5,393 ng/mL"
same,median plasma trough concentration,[1]; before the pulse dosing at the start of week 4,435 ng/mL
same,median plasma trough concentration,[1]; start of week 4,1.1 µM
same,range of plasma trough concentration,[1]; start of week 4,29 to 1655 ng/mL
same,ALT elevated Grade 1 (% of patients),[2]; human,(18%)
same,ALT elevated Grade 1 (patients),[2]; human,6
same,ALT elevated Grade 2 (% of patients),[2]; human,(3%)
same,ALT elevated Grade 2 (patients),[2]; human,1
same,ALT elevated Grade 3 (% of patients),[2]; human,(3%)
same,ALT elevated Grade 3 (patients),[2]; human,1
same,ALT elevated Grade 4 (patients),[2]; human,0
same,ALT elevated Total (any grade) (% of patients),[2]; human,(24%)
same,ALT elevated Total (any grade) (patients),[2]; human,8
same,AST increased Grade 1 (% of patients),[2]; human,(15%)
same,AST increased Grade 1 (patients),[2]; human,5
same,AST increased Grade 2 (% of patients),[2]; human,(3%)
same,AST increased Grade 2 (patients),[2]; human,1
same,AST increased Grade 3 (patients),[2]; human,0
same,AST increased Grade 4 (patients),[2]; human,0
same,AST increased Total (any grade) (% of patients),[2]; human,(18%)
same,AST increased Total (any grade) (patients),[2]; human,6
same,Alopecia Grade 1 (% of patients),[2]; human,(21%)
same,Alopecia Grade 1 (patients),[2]; human,7
same,Alopecia Grade 2 (patients),[2]; human,0
same,Alopecia Grade 3 (patients),[2]; human,0
same,Alopecia Grade 4 (patients),[2]; human,0
same,Alopecia Total (any grade) (% of patients),[2]; human,(21%)
same,Alopecia Total (any grade) (patients),[2]; human,7
same,Anemia Grade 1 (% of patients),[2]; human,(6%)
same,Anemia Grade 1 (patients),[2]; human,2
same,Anemia Grade 2 (% of patients),[2]; human,(3%)
same,Anemia Grade 2 (patients),[2]; human,1
same,Anemia Grade 3 (% of patients),[2]; human,(3%)
same,Anemia Grade 3 (patients),[2]; human,1
same,Anemia Grade 4 (patients),[2]; human,0
same,Anemia Total (any grade) (% of patients),[2]; human,(12%)
same,Anemia Total (any grade) (patients),[2]; human,4
same,Anorexia Grade 1 (% of patients),[2]; human,(9%)
same,Anorexia Grade 1 (patients),[2]; human,3
same,Anorexia Grade 2 (% of patients),[2]; human,(6%)
same,Anorexia Grade 2 (patients),[2]; human,2
same,Anorexia Grade 3 (patients),[2]; human,0
same,Anorexia Grade 4 (patients),[2]; human,0
same,Anorexia Total (any grade) (% of patients),[2]; human,(15%)
same,Anorexia Total (any grade) (patients),[2]; human,5
same,Bilirubin increased Grade 1 (% of patients),[2]; human,(12%)
same,Bilirubin increased Grade 1 (patients),[2]; human,4
same,Bilirubin increased Grade 2 (% of patients),[2]; human,(15%)
same,Bilirubin increased Grade 2 (patients),[2]; human,5
same,Bilirubin increased Grade 3 (% of patients),[2]; human,(6%)
same,Bilirubin increased Grade 3 (patients),[2]; human,2
same,Bilirubin increased Grade 4 (patients),[2]; human,0
same,Bilirubin increased Total (any grade) (% of patients),[2]; human,(32%)
same,Bilirubin increased Total (any grade) (patients),[2]; human,11
same,Diarrhea Grade 1 (% of patients),[2]; human,(71%)
same,Diarrhea Grade 1 (patients),[2]; human,24
same,Diarrhea Grade 2 (% of patients),[2]; human,(3%)
same,Diarrhea Grade 2 (patients),[2]; human,1
same,Diarrhea Grade 3 (% of patients),[2]; human,(12%)
same,Diarrhea Grade 3 (patients),[2]; human,4
same,Diarrhea Grade 4 (patients),[2]; human,0
same,Diarrhea Total (any grade) (% of patients),[2]; human,(85%)
same,Diarrhea Total (any grade) (patients),[2]; human,29
same,Dry skin Grade 1 (% of patients),[2]; human,(29%)
same,Dry skin Grade 1 (patients),[2]; human,10
same,Dry skin Grade 2 (patients),[2]; human,0
same,Dry skin Grade 3 (patients),[2]; human,0
same,Dry skin Grade 4 (patients),[2]; human,0
same,Dry skin Total (any grade) (% of patients),[2]; human,(29%)
same,Dry skin Total (any grade) (patients),[2]; human,10
same,Fatigue Grade 1 (% of patients),[2]; human,(24%)
same,Fatigue Grade 1 (patients),[2]; human,8
same,Fatigue Grade 2 (% of patients),[2]; human,(12%)
same,Fatigue Grade 2 (patients),[2]; human,4
same,Fatigue Grade 3 (patients),[2]; human,0
same,Fatigue Grade 4 (patients),[2]; human,0
same,Fatigue Total (any grade) (% of patients),[2]; human,(35%)
same,Fatigue Total (any grade) (patients),[2]; human,12
same,Mucositis Grade 1 (% of patients),[2]; human,(24%)
same,Mucositis Grade 1 (patients),[2]; human,8
same,Mucositis Grade 2 (% of patients),[2]; human,(9%)
same,Mucositis Grade 2 (patients),[2]; human,3
same,Mucositis Grade 3 (% of patients),[2]; human,(3%)
same,Mucositis Grade 3 (patients),[2]; human,1
same,Mucositis Grade 4 (patients),[2]; human,0
same,Mucositis Total (any grade) (% of patients),[2]; human,(35%)
same,Mucositis Total (any grade) (patients),[2]; human,12
same,Nausea Grade 1 (% of patients),[2]; human,(29%)
same,Nausea Grade 1 (patients),[2]; human,10
same,Nausea Grade 2 (% of patients),[2]; human,(9%)
same,Nausea Grade 2 (patients),[2]; human,3
same,Nausea Grade 3 (% of patients),[2]; human,(6%)
same,Nausea Grade 3 (patients),[2]; human,2
same,Nausea Grade 4 (patients),[2]; human,0
same,Nausea Total (any grade) (% of patients),[2]; human,(44%)
same,Nausea Total (any grade) (patients),[2]; human,15
same,Paronychia Grade 1 (% of patients),[2]; human,(12%)
same,Paronychia Grade 1 (patients),[2]; human,4
same,Paronychia Grade 2 (% of patients),[2]; human,(6%)
same,Paronychia Grade 2 (patients),[2]; human,2
same,Paronychia Grade 3 (patients),[2]; human,0
same,Paronychia Grade 4 (patients),[2]; human,0
same,Paronychia Total (any grade) (% of patients),[2]; human,(18%)
same,Paronychia Total (any grade) (patients),[2]; human,6
same,Pruritis Grade 1 (% of patients),[2]; human,(32%)
same,Pruritis Grade 1 (patients),[2]; human,11
same,Pruritis Grade 2 (patients),[2]; human,0
same,Pruritis Grade 3 (patients),[2]; human,0
same,Pruritis Grade 4 (patients),[2]; human,0
same,Pruritis Total (any grade) (% of patients),[2]; human,(32%)
same,Pruritis Total (any grade) (patients),[2]; human,11
same,Rash Grade 1 (% of patients),[2]; human,(62%)
same,Rash Grade 1 (patients),[2]; human,21
same,Rash Grade 2 (% of patients),[2]; human,(24%)
same,Rash Grade 2 (patients),[2]; human,8
same,Rash Grade 3 (% of patients),[2]; human,(3%)
same,Rash Grade 3 (patients),[2]; human,1
same,Rash Grade 4 (patients),[2]; human,0
same,Rash Total (any grade) (% of patients),[2]; human,(88%)
same,Rash Total (any grade) (patients),[2]; human,30
same,Vomiting Grade 1 (% of patients),[2]; human,(26%)
same,Vomiting Grade 1 (patients),[2]; human,9
same,Vomiting Grade 2 (% of patients),[2]; human,(3%)
same,Vomiting Grade 2 (patients),[2]; human,1
same,Vomiting Grade 3 (% of patients),[2]; human,(3%)
same,Vomiting Grade 3 (patients),[2]; human,1
same,Vomiting Grade 4 (patients),[2]; human,0
same,Vomiting Total (any grade) (% of patients),[2]; human,(32%)
same,Vomiting Total (any grade) (patients),[2]; human,11
same,patients removed for diarrhea,[2]; human,2
same,patients removed for hyperbilirubinemia,[2]; human,1
same,patients removed for mucositis,[2]; human,1
same,patients removed for possible pneumonitis,[2]; human,1
same,patients removed for transaminitis,[2]; human,1
same,patients removed from the study for toxicity,[2],Six
same,patients requiring a dose reduction of the pulse dose,[2],three of sixteen
same,tolerability,[2],well tolerated
same,cerebrospinal fluid (CSF) concentration as % of plasma concentration,[3]; Togashi et al.,3-5%
same,concurrent CSF concentration,[3]; [7],120 nM
same,peak plasma concentration,[3]; [7],"11,300 nM"
same,patients with partial response in the CNS,[4],Six of nine
same,maximum tolerated dose (MTD),"[5]; once weekly, unselected patients with advanced lung cancers (Milton et al.), MTD not reached",≥ 2000 mg
same,MTD,"[5]; twice-weekly pulse dose (Chia et al.), DLT of rash at higher dose levels",1000 mg
same,deaths on study,[6]; all 34 patients,no deaths
same,grade four or five toxicities,[6]; all 34 patients,No grade four or five toxicities
same,MTD (pulse dose),[6]; pulse on days 1 and 2 with 50 mg erlotinib on days 3 to 7,1200 mg
